Assay results as given in US11708348B2, “Protease inhibitors for treatment of coronavirus infections” (The Scripps Research Institute, priority 2021, dated 2023).
Where two headings read alike, the source gives them in different places.

System: SARS-CoV-2 strain USA-WA1/2020
Experiment: microbe, parasite or virus in culture
Assay type: cell-based
Conditions: Severe acute respiratory syndrome coronavirus 2, HeLa-ACE2, 24 h, read-out: EC50, uM (Hela)
[1] = HeLa-ACE2 cells, SARS-CoV-2 infection, 24 h

Compound: CN1CCC[C@H]1C(=O)N1C[C@@H]2CCC[C@@H]2[C@H]1C(=O)N[C@@H](C[C@@H]1CCNC1=O)C(=O)COC(F)(F)F [Compound 440, (1S,3aR,6aS)-2-(methylprolyl)-N-((S)-3-oxo-1-((S)-2-oxopyrrolidin-3-yl)-4-(trifluoromethoxy)butan-2-yl)octahydrocyclo-penta[c]pyrrole-1-carboxamide]
- EC50 [1]: 0.5 to 1 µM

Compound: CC(C)(C)[C@H](NC(=O)C(F)(F)F)C(=O)N1CC2(CC2)C[C@H]1C(=O)N[C@@H](C[C@@H]1CCNC1=O)C(=O)COC(F)(F)F [Compound 441, (S)-5-((S)-3,3-dimethyl-2-(2,2,2-trifluoroacetamido)butanoyl)-N—((S)-3-oxo-1-((S)-2-oxopyrrolidin-3-yl)-4-(trifluoromethoxy)butan-2-yl)-5-azaspiro[2.4]heptane-6-carboxamide]
- EC50: < 0.05 µM

Compound: CC1(C)[C@@H]2[C@@H](C(=O)N[C@@H](C[C@@H]3CCNC3=O)C(=O)COC(F)(F)F)N(C(=O)C(CN3CCC(F)(F)CC3)NC(=O)C(F)(F)F)C[C@@H]21 (stereo partly drawn) [Compound 442, (1R,2S, 5S)-3-(3-(4,4-difluoropiperidin-1-yl)-2-(2,2,2-trifluoroacetamido)-propanoyl)-6,6-dimethyl-N-((S)-3-oxo-1-((S)-2-oxopyrrolidin-3-yl)-4-(trifluoromethoxy)butan-2-yl)-3-azabicyclo[3.1.0]-hexane-2-carboxamide]
- EC50: 0.2 to 0.5 µM

Compound: CC(C)(C)[C@H](NC(=O)OC1CC1)C(=O)N1C[C@H]2[C@@H]([C@H]1C(=O)N[C@@H](C[C@@H]1CCNC1=O)C(=O)COC(F)(F)F)C2(C)C [Compound 447, cyclopropyl ((S)-1-((1R,2S,5S)-6,6-dimethyl-2-(((S)-3-oxo-1-((S)-2-oxopyrrolidin-3-yl)-4-(trifluoromethoxy)butan-2-yl)carbamoyl)-3-azabicyclo[3.1.0]-hexan-3-yl)-3,3-dimethyl-1-oxobutan-2-yl)carbamate]
- EC50 [1]: < 0.05 µM

Compound: CCC(CC)C(=O)N1CC2(CC2)C[C@H]1C(=O)N[C@@H](C[C@@H]1CCNC1=O)C(=O)COC(F)(F)F [Compound 448, (S)-5-(2-ethylbutanoyl)-N-((S)-3-oxo-1-((S)-2-oxopyrrolidin-3-yl)-4-(trifluoromethoxy)butan-2-yl)-5-azaspiro[2.4]heptane-6-carboxamide]
- EC50 [1]: 0.05 to 0.2 µM

Compound: CC(C)C[C@@H](O)C(=O)N(C(=O)[C@@H]1C[C@@]2(C)C[C@H]2N1)[C@@H](C[C@@H]1CCNC1=O)C(=O)COC(F)(F)F [Compound 449, (1R,3S,5R)-2-((R)-2-hydroxy-4-methylpentanoyl)-5-methyl-N-((S)-3-oxo-1-((S)-2-oxopyrrolidin-3-yl)-4-(trifluoromethoxy)butan-2-yl)-2-azabicyclo[3.1.0]-hexane-3-carboxamide]
- EC50 [1]: 0.05 to 0.2 µM

Compound: O=C1NCC[C@H]1C[C@H](NC(=O)[C@@H]1CC2(CC2)CN1C(=O)[C@H](O)CC(F)F)C(=O)COC(F)(F)F [Compound 450, (S)-5-((R)-4,4-difluoro-2-hydroxybutanoyl)-N-((S)-3-oxo-1-((S)-2-oxopyrrolidin-3-yl)-4-(trifluoromethoxy)butan-2-yl)-5-azaspiro[2.4]heptane-6-carboxamide]
- EC50 [1]: 0.05 to 0.2 µM

Compound: CC(C)[C@@H](O)C(=O)N1[C@H](C(=O)N[C@@H](C[C@@H]2CCNC2=O)C(=O)COC(F)(F)F)C[C@@]2(C)C[C@@H]12 [Compound 452, (1R,3S,5R)-2-((R)-2-hydroxy-3-methylbutanoyl)-5-methyl-N-((S)-3-oxo-1-((S)-2-oxopyrrolidin-3-yl)-4-(trifluoromethoxy)butan-2-yl)-2-azabicyclo[3.1.0]hexane-3-carboxamide]
- EC50 [1]: 0.05 to 0.2 µM

Compound: CC(C)(C)c1ccc(C(=O)N2CC3(CC3)C[C@H]2C(=O)N[C@@H](C[C@@H]2CCNC2=O)C(=O)COC(F)(F)F)cc1 [Compound 453, (S)-5-(4-(tert-butyl)benzoyl)-N-((S)-3-oxo-1-((S)-2-oxopyrrolidin-3-yl)-4-(trifluoromethoxy)butan-2-yl)-5-azaspiro[2.4]heptane-6-carboxamide]
- EC50 [1]: < 0.05 µM
